Data taken from article doi:10.1101/637801v3 (biorxiv, 2019).

Key:
[1] = target: rPtxS1 (recombinant pertussis toxin S1 subunit, wild type) (Bordetella pertussis, UniProt P04977); test: fluorometric NAD+ consumption assay; format: biochemical
[2] = target: pertussis AB5 holotoxin (PtxS1-S5) (Bordetella pertussis, UniProt P04977); test: cell-based
Sequence of pertussis AB5 holotoxin (PtxS1-S5) (P04977 whole entry, looked up): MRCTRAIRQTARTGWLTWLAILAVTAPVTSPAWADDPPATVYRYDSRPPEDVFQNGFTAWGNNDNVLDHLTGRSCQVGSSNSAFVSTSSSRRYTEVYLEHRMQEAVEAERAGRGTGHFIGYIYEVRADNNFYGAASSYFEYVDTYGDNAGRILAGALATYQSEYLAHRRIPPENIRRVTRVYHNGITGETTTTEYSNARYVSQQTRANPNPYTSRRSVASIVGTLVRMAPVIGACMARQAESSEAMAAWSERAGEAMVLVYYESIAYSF

Sequence of rPtxS1 (recombinant pertussis toxin S1 subunit, wild type) (P04977 35-221 limits assumed): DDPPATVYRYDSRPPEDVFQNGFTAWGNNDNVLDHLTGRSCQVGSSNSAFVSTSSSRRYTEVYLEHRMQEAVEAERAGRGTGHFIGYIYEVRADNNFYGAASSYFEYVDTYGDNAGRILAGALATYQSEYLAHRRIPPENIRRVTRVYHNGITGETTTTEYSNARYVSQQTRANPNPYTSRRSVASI

SMILES	IC50 [1] [µM]	IC50 [2] [µM]
O=C(/C=C/c1cccnc1)/C=C/c1cccnc1 [NSC149286]	20	–
Sc1nc2c[nH]c(S)nc-2n1 [NSC29193, purine-2,8-dithiol]	6.8	–
O=[N+]([O-])c1ccc(Sc2cccc[n+]2[O-])c2nonc12 [NSC228155, 7-nitro-4-(1-oxidopyridin-1-ium-2-yl)sulfanyl-2,1,3-benzoxadiazole]	3	2.35
